Data published in patent publication US7309817B2, “Plant alpha farnesene synthase and polynucleotides encoding same” (The Horticulture and Food Research Institute of New Zealand …, priority 2002, dated 2007).

Assays:
[1] = tested on: CC(C)=CCC/C(C)=C/CC/C(C)=C/CO[P@@](=O)(O)OP(=O)(O)O; experiment: purified protein, by the assay type; conditions: other: protein stored at -80 C for 9 months; pH 7.5
[2] = tested on: other sesquiterpene synthases; conditions: other sesquiterpene synthases (Cai et al 2002, Steele et al 1998); read-out: Km reported in the literature; cited from earlier work
alpha-farnesene synthase = target: T1, alpha-farnesene synthase (Malus domestica, UniProt Q84LB2, A297S/I281F); format: biochemical; conditions: for Vrel (%), relative activity due to additions of metal ions: saturating FDP, Mg 7 mM, Mn 150 μM, KCl or NaCl 50 mM
T1 construct: a cDNA fragment encoding EST57400 was excised from pBK-CMV57400 using a EcoRI restriction endonuclease site immediately adjacent to the start ATG; His6 (from vector pET-30a) (N); made in house; host or cells: E. coli BL21-CodonPlus-RIL
Description: Kinetic Studies: For kinetic studies, alpha-farnesene synthase active protein that had been induced in culture and purified as described for protein optimisation was added to a minimal assay buffer containing 50 mM Bis-Tris-Propane (pH 7.5), 10% (v/v) glycerol, 1 mM DTT and 0.1% (v/v) Tween-20. […] One mL assays containing 1-2 μg of protein were overlaid with 0.6 mL pentane and incubated in 1.5 mL microfuge tubes for 2 hours at 30° C. and 150 rpm. All assays were performed in triplicate. Following incubation assays were immediately placed on ice and a 200 μL aliquot of the pentane layer removed for analysis. The aliquots were added to 1.5 mL microfuge tubes containing […] Organic Counting Scintillant (OCS) (Amersham) and vortexed briefly. Scintillation analysis was performed using a Wallac 1409 Liquid Scintillation Counter (^3H efficiency≈70%).
The effect on enzyme activity of metal co-factors with and without salts was also tested. Mg^2+ and Mn^2+ were added in the presence and absence of 50 mM KCL and 50 mM NaCl in all possible combinations. Controls included incubation without enzyme, with enzyme but without metal ion cofactors and with enzyme and cofactors in the presence of 10 mM EDTA.
Kinetic constants were determined from the DPM data by nonlinear regression using the Origin50 graphics package. […] All experiments were carried out at least twice.

[3] = Storage stability of purified recombinant alpha-farnesene synthase at -80 C; format: physicochemical
Description: Characterization of alpha-farnesene synthase from bacterial extracts and partially purified alpha-farnesene synthase recombinant protein: Cultures were set up, grown and induced as above. Following induction, cultures were immediately transferred to a 24° C. incubator and allowed to grow for a further 18-20 hours with continuous agitation and then cells harvested by centrifugation (2000×g for 10 min). […] The remainder of the extract (15 ml) was applied to PD-10 gel filtration columns (Amersham-Pharmacia Biotech) pre-equilibrated with either binding or extraction buffer (DTT omitted). Eluent fractions were then pooled and purification of recombinant protein was carried out in a single step using immobilised metal affinity chromatography (IMAC). The eluent was applied to a Hi-Trap Chelating HP column (Amersham-Pharmacia Biotech) charged with Ni^+. Non bound proteins were removed and recombinant protein was eluted following the manufacturer's specifications. […] Headspace volatiles were collected as in the bacterial cultures. Aliquots of the remaining recombinant protein were stored at −80° C. in 20% glycerol until required.
Protein concentration was determined from the extinction coefficient (VectorNTI version 8) and the purified extract adjusted to ˜1 mg protein/mL with His6 elution buffer containing 10% glycerol and 1 mM DTT. […]

alpha-farnesene synthase (Malus domestica; A297S/I281F)
Km [1]: 1.5 µM

[Mn+2] [Mn^2+]
Km [2]: 7 to 30 µM
inhibition of activity at high Mn2+ concentration (alpha-farnesene synthase; >800 μM Mn2+): at least 50%
Vrel (%), relative activity due to additions of metal ions (alpha-farnesene synthase): 13%

[Mg+2] [Mg^2+]
Km [2]: 70 to 150 µM
inhibition of activity at high Mg2+ concentration (alpha-farnesene synthase; 25 mM Mg2+): 23%
Vrel (%), relative activity due to additions of metal ions (alpha-farnesene synthase): 16%

B1: alpha-farnesene synthase: recombinant His-tagged sesquiterpene synthase from apple (Malus domestica Royal Gala) skin, expressed in E. coli (protein, listed as Malus domestica)
chain: MEFRVHLQADNEQKIFQNQMKPEPEASYLINQRRSANYKPNIWKNDFLDQSLISKYDGDEYRKLSEKLIEEVKIYISAETMDLVAKLELIDSVRKLGLANLFEKEIKEALDSIAAIESDNLGTRDDLYGTALHFKILRQHGYKVSQDIFGRFMDEKGTLENHHFAHLKGMLELFEASNLGFEGEDILDEAKASLTLALRDSGHICYPDSNLSRDVVHSLELPSHRRVQWFDVKWQINAYEKDICRVNATLLELAKLNFNVVQAQLQKNLREASRWWANLGFADNLKFARDRLVECFSCAVGVAFEPEHSSFRICLTKVINLVLIIDDVYDIYGSEEELKHFTNAVDRWDSRETEQLPECMKMCFQVLYNTTCEIAREIEEENGWNQVLPQLTKVWADFCKALLVEAEWYNKSHIPTLEEYLRNGCISSSVSVLLVHSFFSITHEGTKEMADFLHKNEDLLYNISLIVRLNNDLGTSAAEQERGDSPSSIVCYMREVNASEETARKNIKGMIDNAWKKVNGKCFTTNQVPFLSSFMNNATNMARVAHSLYKDGDGFGDQEKGPRTHILSLLFQPLVN
modifications: His tag
notes: recombinant His-tagged sesquiterpene synthase from apple (Malus domestica Royal Gala) skin, expressed in E. coli
temperature of maximum activity (alpha-farnesene synthase; 7 mM Mg, 150 μM Mn, 25 μM FDP, FIG. 14): 37 °C
loss of activity on storage ([3]; stored at -80 C for 9 months): 92.5%
loss of activity on storage ([3]; stored in glycerol for 4 weeks at -80 C): 15%
